Common to all, as to assay type: cell-based
Test [1] has as its system Aspergillus terreus AT49. Put plainly: MIC, YAG medium. The settings on record: 24 h at 35° C, MIC banded into grades; for MIC: Aspergillus terreus, read-out: MIC grade, A. terreus 49. A digest of the protocol: (§1)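 DMSO stocks diluted in water as doubling series; spore suspension in YAG (glucose, NH4Cl, yeast extract) added to give 1−2×10^4 cfu/mL. 35° C, 24 h. Growth by OD485; MIC at >70% inhibition, mg/L.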

Test [2] concerns Aspergillus fumigatus AF210. Description: MIC, YAG medium. The note with it: 24 h at 35° C, MIC banded into grades; for MIC: Aspergillus fumigatus, read-out: MIC grade, A. fumigatus 210. The method in brief: as §1
Test [3] relates to Aspergillus flavus. Put plainly: MIC, YAG medium. The note with it: 24 h at 35° C, MIC banded into grades; for MIC: Aspergillus flavus, 24 h, read-out: MIC grade, A. flavus. A digest of the protocol: as §1
In test [4] the test system is Aspergillus niger. Description: MIC, YAG medium. The settings on record: 24 h at 35° C, MIC banded into grades; for MIC: Aspergillus niger, read-out: MIC grade, A. niger. The method in brief: as §1
The test system of test [5] is Aspergillus fumigatus AF293. Description: MIC, YAG medium. The note with it: 24 h at 35° C, MIC banded into grades; for MIC: Aspergillus fumigatus, read-out: MIC grade, A. fumigatus. A digest of the protocol: as §1
For test [6], the system named is Aspergillus terreus AT4. Put plainly: MIC, YAG medium. The note with it: 24 h at 35° C, MIC banded into grades; for MIC: Aspergillus terreus, read-out: MIC grade, A. terreus. The method in brief: as §1
Test [7] concerns Aspergillus terreus AT49. Description: MIC, RPMI medium. The settings on record: for MIC: Aspergillus terreus, AT49, MIC banded into grades, read-out: MIC grade, A. terreus 49; for MIC grade, A. terreus 49: MIC banded into grades. The method in brief:
(§2)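 Broth microdilution in RPMI with 2% glucose, 0.135 M MOPS pH 7.0; compounds as doubling dilutions, 50-0.05 mg/L, inoculum 1−2×10^4 cfu/mL. Incubated 24-48 h at 35° C; growth by OD 485 nm. MIC is lowest concentration giving >80% growth inhibition versus drug-free control.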

Test [8] has as its system Aspergillus fumigatus AF210. Description: MIC, RPMI medium. The settings on record: for MIC: Aspergillus fumigatus, AF210, MIC banded into grades, read-out: MIC grade, A. fumigatus 210; for MIC grade, A. fumigatus 210: MIC banded into grades. The method in brief:
as §2

The test system of test [9] is Aspergillus flavus. Description: MIC, RPMI medium. The note with it: MIC banded into grades; for MIC: Aspergillus flavus, read-out: MIC grade, A. flavus. The method in brief:
as §2

For test [10], the system named is Aspergillus niger. Description: MIC, RPMI medium. The settings on record: MIC banded into grades; for MIC: Aspergillus niger, read-out: MIC grade, A. niger. A digest of the protocol: as §2
The test system of test [11] is Aspergillus fumigatus AF293. Put plainly: MIC, RPMI medium. The note with it: for MIC: Aspergillus fumigatus, AF293, MIC banded into grades, read-out: MIC grade, A. fumigatus; for MIC grade, A. fumigatus: MIC banded into grades. The method in brief: as §2
Test [12] concerns Aspergillus terreus AT4. Description: MIC, RPMI medium. The settings on record: for MIC: Aspergillus terreus, AT4, MIC banded into grades, read-out: MIC grade, A. terreus; for MIC grade, A. terreus: MIC banded into grades. The method in brief:
as §2

SMILES strings stand for the structures. ≈ marks a conversion by molar mass, not a printed value.

From US8993574B2, “Pyrrole antifungal agents” (F2G Ltd, priority 2008, dated 2015) come the findings set out here.

The MIC is the least concentration at which growth counts as inhibited.

Turning to `COCCn1c(C)cc(-c2ccccc2)c1C(=O)C(=O)Nc1cccc2ncccc12` [Example 29, 2-[1-(2-Methoxy-ethyl)-5-methyl-3-phenyl-1H-pyrrol-2-yl]-2-oxo-N-quinolin-5-yl-acetamide], the MIC in [1], in test [2], in test [3], in test [4], in test [5] and in test [6] was more than 10 µg/mL in each case. Besides, the MIC in [7], in [8], in [9], in [10], in test [11] and in test [12] was more than 10 µg/mL in each case.
Consider `Cc1cc(-c2ccccc2)c(C(=O)C(=O)Nc2ccc(N3CCN(c4ccc(CN5CCOCC5)cn4)CC3)cc2)n1C` [Example 120, 2-(1,5-Dimethyl-3-phenyl-1H-pyrrol-2-yl)-N-{4-[4-(5-morpholin-4-ylmethyl-pyridin-2-yl)-piperazin-1-yl]-phenyl}-2-oxo-acetamide], for which the MIC in [1], in test [2], in test [3], in test [4], in test [5] and in [6] was less than 1 µg/mL throughout. In addition, the MIC in test [7], in test [8], in test [9], in test [10], in test [11] and in test [12] was less than 1 µg/mL throughout.
As for `Cc1cc(C)nc(N2CCN(c3ccc(NC(=O)C(=O)c4c(-c5ccccc5)cc(C)n4Cc4ccccn4)cc3)CC2)c1` [Example 91, N-{4-[4-(4,6-Dimethyl-pyridin-2-yl)-piperazin-1-yl]-phenyl}-2-(5-methyl-3-phenyl-1-pyridin-2-ylmethyl-1H-pyrrol-2-yl)-2-oxo-acetamide], the MIC in test [1] was 1 to 10 µg/mL (≈ 1.71 to 17.1 µM); in test [2] it was 1 to 10 µg/mL (≈ 1.71 to 17.1 µM); in test [3], more than 10 µg/mL; in [4] it was more than 10 µg/mL; in [5], 1 to 10 µg/mL (≈ 1.71 to 17.1 µM); in test [6] it was more than 10 µg/mL. Also, the MIC in [7], in [8], in test [9], in test [10], in test [11] and in test [12] was more than 10 µg/mL throughout.
Consider `COCCn1c(C(C)C)cc(-c2ccccc2)c1C(=O)C(=O)Nc1ccc(N2CCN(c3cc(C)cc(C)n3)CC2)cc1` [Example 78, N-{4-[4-(4,6-Dimethyl-pyridin-2-yl)-piperizin-1-yl]-phenyl}-2-[5-isopropyl-1-(2-methoxy-ethyl)-3-phenyl-1H-pyrrol-2-yl]-2-oxo-acetamide], for which the “MIC grade, A. terreus 49” value in [1] is listed as 2 (A grade of 2 represents an MIC of from 1 to 10 mg/L); in test [7] it was 1 (a grade of 1 represents an MIC of greater than 10 mg/L). Besides, the “MIC grade, A. fumigatus 210” value in test [2] and in test [8] was 1 (a grade of 1 represents an MIC of greater than 10 mg/L) throughout. Besides, the “MIC grade, A. flavus” value in test [3] and in test [9] was 1 (a grade of 1 represents an MIC of greater than 10 mg/L) in each case. Further, the “MIC grade, A. niger” value in test [4] and in [10] was 1 (a grade of 1 represents an MIC of greater than 10 mg/L) each time. Also, the “MIC grade, A. fumigatus” value in [5] and in test [11] was 1 (a grade of 1 represents an MIC of greater than 10 mg/L) throughout. Moreover, the “MIC grade, A. terreus” value in test [6] and in [12] was 1 (a grade of 1 represents an MIC of greater than 10 mg/L) throughout.
Take `CCc1cc(-c2ccccc2)c(C(=O)C(=O)Nc2ccc(N3CCN(c4cc(C)cc(C)n4)CC3)cc2)n1COC` [Example 125, N-{4-[4-(4,6-Dimethyl-pyridin-2-yl)-piperazin-1-yl]-phenyl}-2-(5-ethyl-1-methoxymethyl-3-phenyl-1H-pyrrol-2-yl)-2-oxo-acetamide]: the minimal inhibitory concentration (MIC) in test [1], in test [2], in [3], in [4], in test [5] and in [6] was less than 1 µg/mL throughout. Also, the MIC in test [7], in [8], in [9], in test [10], in [11] and in test [12] was 1 to 10 µg/mL (≈ 1.81 to 18.1 µM) throughout.
For `COC(=O)Cn1cccc1C(=O)C(=O)Nc1ccc(N2CCN(c3cc(C)cc(C)n3)CC2)cc1` [Example 61, (2-{4-[4-(4,6-Dimethyl-pyridin-2-yl)-piperazin-1-yl]-phenylaminooxalyl}-pyrrol-1-yl)-acetic acid methyl ester], the “MIC grade, A. terreus 49” value in test [1] and in [7] was 1 (a grade of 1 represents an MIC of greater than 10 mg/L) throughout. The “MIC grade, A. fumigatus 210” value in test [2] and in [8] was 2 (A grade of 2 represents an MIC of from 1 to 10 mg/L) throughout. Further, the “MIC grade, A. flavus” value in test [3] and in test [9] was 1 (a grade of 1 represents an MIC of greater than 10 mg/L) each time. For the same compound, the “MIC grade, A. niger” value in test [4] and in test [10] was 1 (a grade of 1 represents an MIC of greater than 10 mg/L) each time. The “MIC grade, A. fumigatus” value in test [5] and in test [11] was 1 (a grade of 1 represents an MIC of greater than 10 mg/L) in each case. For the same compound, the “MIC grade, A. terreus” value in [6] and in [12] was 1 (a grade of 1 represents an MIC of greater than 10 mg/L) in each case.
For `Cc1cc(C)nc(N2CCN(c3ccc(NC(=O)C(=O)c4[nH]c(C)cc4-c4ccccc4)cc3)CC2)c1` [Example 50, N-{4-[4-(4,6-Dimethyl-pyridin-2-yl)-piperazin-1-yl]-phenyl}-2-(5-methyl-3-phenyl-1H-pyrrol-2-yl)-2-oxo-acetamide], the MIC in test [1], in test [2], in test [3], in [4], in test [5] and in [6] was less than 1 µg/mL throughout. The MIC in [7], in test [8], in test [9], in [10], in [11] and in test [12] was less than 1 µg/mL in each case.
For the compound `COCn1c(C)cc(-c2ccccc2)c1C(=O)C(=O)Nc1ccc(N2CCN(c3cc(C)cc(C)n3)CC2)cc1` [Example 62, N-{4-[4-(4,6-Dimethyl-pyridin-2-yl)-piperazin-1-yl]-phenyl}-2-(1-methoxymethyl-5-methyl-3-phenyl-1H-pyrrol-2-yl)-2-oxo-acetamide], the MIC in test [1], in test [2], in test [3], in test [4], in test [5] and in [6] was less than 1 µg/mL in each case. Besides, the MIC in test [7], in [8], in test [9], in test [10], in [11] and in test [12] was less than 1 µg/mL in each case.
